The values that follow come from patent US11976057B2, “MrgX2 antagonists” (GlaxoSmithKline Intellectual Property Development Limited, priority 2020, dated 2024).

The experiment has as its target T1, human MRGPRX2 (Homo sapiens, UniProt Q96LB1).
T1 sequence (Q96LB1 1-330): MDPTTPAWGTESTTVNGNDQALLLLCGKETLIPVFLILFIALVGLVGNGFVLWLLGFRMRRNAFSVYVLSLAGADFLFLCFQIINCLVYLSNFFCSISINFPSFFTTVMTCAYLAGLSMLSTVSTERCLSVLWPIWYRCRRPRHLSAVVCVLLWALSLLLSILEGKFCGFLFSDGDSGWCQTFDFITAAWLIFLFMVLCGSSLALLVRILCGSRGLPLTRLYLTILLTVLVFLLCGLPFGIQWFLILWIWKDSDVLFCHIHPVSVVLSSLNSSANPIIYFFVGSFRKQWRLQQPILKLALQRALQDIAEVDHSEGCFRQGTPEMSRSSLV
Put plainly: Ca2+ mobilization assay (FLIPR TETRA): inhibition of Cortistatin-14 mediated MRGPRX2 activation. On the technique in general: Calcium flux is commonly read through the fluorescence of an indicator in the cells.

One may read the IC50 as the concentration needed to halve the response being measured. A lower IC50 goes with inhibition by little substance. On to `C[C@@H](C(=O)Nc1cnc(Oc2cc(F)c(F)cc2F)cn1)N1CCC(F)(F)[C@@H](c2cc[n+]([O-])cc2)C1` [Example 120, 4-((S)-4,4-difluoro-1-((S)-1-oxo-1-((5-(2,4,5-trifluorophenoxy)pyrazin-2-yl)amino)propan-2-yl)piperidin-3-yl)pyridine 1-oxide], for which the IC50 is at most 0.01 µM.

Take `C[C@@H](C(=O)Nc1ccc(OCC2CC2)cn1)N1CCC(F)(F)[C@@H](c2c[nH]c(=O)c(N)n2)C1` [Example 105, (S)-2-((R)-3-(6-amino-5-oxo-4,5-dihydropyrazin-2-y1)-4,4-difluoropiperidin-l-y1)-N-(5-(cyclopropylmethoxy)pyridin-2-yl)propanamide]: the 50% inhibitory concentration (IC50) lay in the range of 0.01 to 0.1 µM.

In the case of `C[C@@H](C(=O)Nc1ccc(F)cn1)N1CCC(F)(F)[C@@H](c2cc[n+]([O-])c(CC(F)(F)F)c2)C1` [Example 219], the IC50 fell in the range of 0.01 to 0.1 µM.

For `C[C@@H](C(=O)Nc1ccc(Oc2ccc(F)cc2F)cn1)N1CCC(F)(F)C(c2cncc(C(O)C(F)(F)F)c2)C1` (mixture of isomers) [Example 265, (2S)-2-(4,4-difluoro-3-(5-(2,2,2-trifluoro-1-hydroxyethyl)pyridin-3-yl)piperidin-1-yl)-N-(5-(2,4-difluorophenoxy)pyridin-2-yl)propanamide], the 50% inhibitory concentration (IC50) was at most 0.01 µM.

Regarding `C[C@@H](C(=O)Nc1ccc(OCC2CC2)nn1)N1CCC(F)(F)[C@@H](c2c[nH]c(=O)c([C@H](O)C(F)(F)F)c2)C1` (single isomer, unassigned) [Example 210, (S)-N-(6-(cyclopropylmethoxy)pyridazin-3-yl)-2-((S)-4,4-difluoro-3-(6-oxo-5-((S)-2,2,2-trifluoro-1-hydroxyethyl)-1,6-dihydropyridin-3-yl)piperidin-1-yl)propanamide or (S)-N-(6-(cyclopropylmethoxy(pyridazin-3-yl)-2-((S)-4,4-difluoro-3-(6-oxo-5-((R)-2,2,2-trifluoro-1-hydroxyethyl)-1,6-dihydroypridin-3-yl)piperidin-1-yl)propanamide], the IC50 was at most 0.01 µM.

`C[C@@H](C(=O)Nc1ccc(Cl)cn1)N1CCC(F)(F)[C@@H](c2c[nH]c(=O)c(N)c2)C1` [Example 141, (S)-2-((S)-3-(5-amino-6-oxo-1,6-dihydropyridin-3-yl)-4,4-difluoropiperidin-1-yl)-N-(5-chloropyridin-2-yl)propanamide] gave an IC50 of 0.1 to 3.16 µM.

As to `CC(C(=O)Nc1ccc(Oc2cncc(F)c2)cn1)N1CCC(F)(F)[C@@H](c2ccc(=O)[nH]c2)C1` (stereo partly drawn) [Example 67, 2-((S)-4,4-difluoro-3-(6-oxo-1,6-dihydropyridin-3-yl)piperidin-1-yl)-N-(5-((5-fluoropyridin-3-yl)oxy)pyridin-2-yl)propanamide], the 50% inhibitory concentration (IC50) lay in the range of 0.01 to 0.1 µM.

`C[C@@H](C(=O)Nc1cnc(Oc2ccc(F)cc2F)cn1)[C@H]1CCC(F)(F)[C@@H](c2cc[n+]([O-])cc2)C1` [Example 295, 4-((1R,5S)-5-((R)-1-((5-(2,4-difluorophenoxy)pyrazin-2-yl)amino)-1-oxopropan-2-yl)-2,2-difluorocyclohexyl)pyridine 1-oxide] came in with an IC50 of at most 0.01 µM.

As for `C[C@@H](C(=O)Nc1ccc(Oc2ccc(F)cc2)cn1)N1CCC(F)(F)[C@@H](c2c[nH]c(=O)c([C@@H](N)C(F)(F)F)c2)C1` (single isomer, unassigned) [Example 234], the IC50 was at most 0.01 µM.

For `CC(C(=O)Nc1ccc(-c2cccs2)cn1)N1CCC(F)(F)[C@@H](c2ccc(=O)[nH]c2)C1` (stereo partly drawn) [Example 50, 2-((S)-4,4-difluoro-3-(6-oxo-1,6-dihydropyridin-3-yl)piperidin-1-yl)-N-(5-(thiophen-2-yl)pyridin-2-yl)propanamide], the IC50 lay within 0.1 to 3.16 µM.

The compound `C[C@@H](C(=O)Nc1ccc(OCC2CC2)nn1)N1CCC(F)(F)C(c2c[nH]c(=O)c(C#N)c2)C1` (stereo partly drawn) [Example 223, (2S)-2-(3-(5-cyano-6-oxo-1,6-dihydropyridin-3-yl)-4,4-difluoropiperidin-1-yl)-N-(6-(cyclopropylmethoxy)pyridazin-3-yl)propanamide] gave an IC50 of 0.01 to 0.1 µM.

As for `C[C@@H](C(=O)Nc1ccc(F)cn1)N1CCC(F)(F)[C@@H](c2cc(N)c(=O)[nH]n2)C1` [Example 143, (S)-2-((R)-3-(5-amino-6-oxo-1,6-dihydropyridazin-3-yl)-4,4-difluoropiperidin-1-yl)-N-(5-fluoropyridin-2-yl)propanamide], the IC50 lay within 0.01 to 0.1 µM.

Regarding `CC(C(=O)Nc1ccc(CC2CCCCC2)cn1)N1CCC(F)(F)[C@@H](c2ccc(=O)[nH]c2)C1` (stereo partly drawn) [Example 27, N-(5-(cyclohexyl-methyl)pyridin-2-yl)-2-((S)-4,4-difluoro-3-(6-oxo-1,6-dihydropyridin-3-yl)piperidin-1-yl)propanamide], the IC50 lay in the range of 0.1 to 3.16 µM.

As to `CC(C(=O)Nc1ccc(Br)cn1)N1CCC(F)(F)[C@@H](c2ccc(=O)[nH]c2)C1` (stereo partly drawn) [Example 94, N-(5-bromopyridin-2-yl)-2-((S)-4,4-difluoro-3-(6-oxo-1,6-dihydropyridin-3-yl)piperidin-1-yl)propanamide], the IC50 is 0.1 to 3.16 µM.

`C[C@@H](C(=O)Nc1ccc(OCC2CC2)nn1)N1CCC(F)(F)[C@@H](c2ccc(=O)[nH]c2)C1` [Example 8, N-(6-(cyclopropylmeth-oxy)pyridazin-3-yl)-2-((S)-4,4-difluoro-3-(6-oxo-1,6-dihydropyridin-3-yl)piperidin-1-yl)propanamide] gave a half-maximal inhibitory concentration (IC50) of 0.01 to 0.1 µM.

Turning to `C[C@@H](C(=O)Nc1ccc2c(n1)CN(C1CC1)C2)N1CCC(F)(F)[C@@H](c2ccc(=O)[nH]c2)C1` [Example 32, (S)-N-(6-cyclopropyl-6,7-dihydro-5H-pyrrolo[3,4-b]pyridin-2-yl)-2-((S)-4,4-difluoro-3-(6-oxo-1,6-dihydropyridin-3-yl)piperidin-1-yl)propanamide], the IC50 was in the range of 0.1 to 3.16 µM.

`C[C@@H](C(=O)Nc1ccc(OCC2CC2)nn1)[C@H]1CCC(F)(F)[C@@H](c2ccc(=O)[nH]c2)C1` [Example 276, (R)-N-(6-(cyclopropylmethoxy)pyridazin-3-yl)-2-((1S,3R)-4,4-difluoro-3-(6-oxo-1,6-dihydropyridin-3-yl)cyclohexyl)propanamide] had an IC50 of 0.01 to 0.1 µM.

`C[C@@H](C(=O)Nc1ccc(Oc2cc(F)c(F)cc2F)cn1)N1CCC(F)(F)[C@@H](c2cc[n+]([O-])cc2)C1` [Example 124, 4-((S)-4,4-difluoro-1-((S)-1-oxo-1-((5-(2,4,5-trifluorophenoxy)pyridin-2-yl)amino)propan-2-yl)piperidin-3-yl)pyridine 1-oxide]: the 50% inhibitory concentration (IC50) is at most 0.01 µM.

On to `C[C@@H](C(=O)Nc1ccc(Oc2ccc(Cl)cn2)cn1)N1CCC(F)(F)[C@@H](c2ccc(=O)[nH]c2)C1` [Example 88, (S)-N-(5-((5-chloropyridin-2-yl)oxy)pyridin-2-yl)-2-((S)-4,4-difluoro-3-(6-oxo-1,6-dihydropyridin-3-yl)piperidin-1-yl)propanamide], for which the IC50 fell in the range of 0.01 to 0.1 µM.

With `C[C@@H](C(=O)Nc1ccc(Oc2ccc(F)cn2)cn1)[C@H]1CCC[C@@H](c2ccc(=O)[nH]c2)C1` [Example 283, (R)-N-(5((5-fluoropyridin-2-yl)oxy)pyridin-2-yl)-2-((1S,3R)-3-(6-oxo-1,6-dihydropyridin-3-yl)cyclohexyl)propanamide], the IC50 was at most 0.01 µM.

On to `Cc1cccc(-c2ccc(NC(=O)[C@H](C)N3CCC(F)(F)[C@@H](c4ccc(=O)[nH]c4)C3)nc2)c1` [Example 16, (S)-2-((S)-4,4-difluoro-3-(6-oxo-1,6-dihydropyridin-3-yl)piperidin-1-yl)-N-(5-(m-tolyl)pyridin-2-yl)propanamide], for which the concentration for half-maximal inhibition (IC50) lay within 0.01 to 0.1 µM.

On to `C[C@@H](C(=O)Nc1ccc(Oc2ccc(F)cc2F)cn1)N1CCC(F)(F)[C@@H](c2c[nH]c(=O)c(CS(C)(=O)=O)c2)C1` [Example 216, (S)-2-((S)-4,4-difluoro-3-(5-((methylsulfonyl)methyl)-6-oxo-1,6-dihydropyridin-3-yl)piperidin-1-yl)-N-(5-(2,4-difluorophenoxy)pyridin-2-yl)propanamide], for which the IC50 was at most 0.01 µM.

`C[C@@H](C(=O)Nc1ccc(Oc2ccc(F)cc2)cn1)N1CCC(F)(F)[C@@H](c2c[nH]c(=O)c(C(N)=O)c2)C1` [Example 252, 5-((S)-4,4-difluoro-1-((S)-1-((5-(4-fluorophenoxy)pyridin-2-yl)amino)-1-oxopropan-2-yl)piperidin-3-yl)-2-oxo-1,2-dihydropyridine-3-carboxamide] displayed an IC50 of at most 0.01 µM.

Regarding `C[C@@H](C(=O)Nc1ccc(OCC2CC2)cn1)N1CCC(F)(F)[C@@H](c2ccc(=O)n(CC(F)(F)F)c2)C1` (single isomer, unassigned) [Example 2], the IC50 was at most 0.01 µM.

As to `Cc1ccccc1Oc1ccc(NC(=O)[C@H](C)N2CCC(F)(F)[C@@H](c3ccc(=O)[nH]c3)C2)nn1` [Example 20], the IC50 fell in the range of 0.1 to 3.16 µM.

`C[C@@H](C(=O)Nc1ccc(Oc2ccccc2)nn1)N1CCC(F)(F)[C@@H](c2ccc(=O)[nH]c2)C1` [Example 19, 2-((S)-4,4-difluoro-3-(6-oxo-1,6-dihydropyridin-3-yl)piperidin-1-yl)-N-(6-phenoxy-pyridazin-3-yl)propanamide] came in with a half-inhibitory concentration (IC50) of 0.1 to 3.16 µM.

`CC(C(=O)Nc1cnc(Oc2ccc(F)cc2CO)cn1)N1CCC(F)(F)[C@@H](c2cc[n+]([O-])cc2)C1` (stereo partly shown) [Example 274] returned an IC50 of 0.1 to 3.16 µM.

In the case of `CC(C(=O)Nc1ccc(-c2ccn(C)n2)cn1)N1CCC(F)(F)[C@@H](c2ccc(=O)[nH]c2)C1` (stereo partly drawn) [Example 55, 2-((S)-4,4-difluoro-3-(6-oxo-1,6-dihydropyridin-3-yl)piperidin-1-yl)-N-(5-(1-methyl-1H-pyrazol-3-yl)pyridin-2-yl)propanamide], the IC50 is 3.16 to 31.6 µM.
